The values below come from ChEMBL document CHEMBL1201862, “PubChem BioAssay data set” (2004).

What all share (assay): NCI-60 cell line screen, 48 h
The subject of test [1] is SF-295.
Test [2] concerns OVCAR-4.
In test [3] the test system is U-251.
Test [4] deals with A498.
Test [5] relates to ACHN.
Test [6] concerns OVCAR-5.
Test [7] has as its system TK-10.
Test [8] concerns HOP-92.
The subject of test [9] is MDA-MB-435.
The subject of test [10] is HCC 2998.
The test system of test [11] is SK-MEL-2.
Test [12] relates to EKVX.
For test [13], the system named is DMS-114.
Test [14] concerns A549.
In test [15] the test system is HCT-15.
For test [16], the system named is NCI-H23.
Test [17] has as its system LOX IMVI.
Test [18] has as its system SK-MEL-5.
For test [19], the system named is Hs-578T.
In test [20] the test system is SNB-75.

Each structure is given as a SMILES string.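 Compound exposure: 48 hours, 5 concentrations, 96-well plates. GI50 = concentration required for 50% inhibition of growth.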 Active and inactive are the calls of the source. Rule as the data show it: active = GI50 up to about 1.1 µM and inactive = higher.

In the case of `Nc1nc(N)c(CCCCc2ccccc2)c(N)n1`, the GI50 in test [1], in test [2], in test [3], in [4], in test [5] and in test [6] was > 100 µM (inactive) throughout. Also, the GI50 in test [7] is > 100 µM (inactive); in test [8] it was > 100 µM (inactive); in test [9], > 100 µM (inactive); in test [10] it was > 100 µM (inactive); in test [11] it was > 100 µM (inactive); in [12] it was > 42.8 µM (inactive). Further, the GI50 in test [13] was > 100 µM (inactive); in test [14], > 100 µM (inactive); in [15], above 100 µM; in test [16] it was > 100 µM (inactive); in test [17], > 100 µM (inactive); in test [18], > 100 µM (inactive). The figures for the GI50 in test [19] and in test [20] were > 100 µM (inactive) and 60.7 µM (inactive), respectively.
Consider `CCOC(=O)N1CCc2cc(OC)c(OC)c3c2c1cc1cc(OC)c(OC)cc13`, for which the GI50 in test [1] is 0.927 µM (active); in test [2], 10.5 µM (inactive); in test [3], 2.7 µM (inactive); in test [4], 2.21 µM (inactive); in test [5], 4.11 µM (inactive); in test [6] it was 16.9 µM (inactive). Also, the GI50 in test [7] was 7.98 µM (inactive); in [8] it was 3.8 µM (inactive); in [9] it was 0.393 µM (active); in test [10] it was 2.29 µM (inactive); in test [11] it was 2.24 µM (inactive); in test [12] it was 8.97 µM (inactive). For the same compound, the GI50 in [13] was 1.55 µM (inactive); in test [14], 1.7 µM (inactive); in test [15] it was 0.914 µM; in test [16], 3.95 µM (inactive); in test [17], 2.28 µM (inactive); in test [18] it was 0.499 µM (active). For the same compound, the figures for the GI50 in test [19] and in test [20] were 1.99 µM (inactive) and 1.37 µM (inactive), respectively.
Consider `C/N=N/N(C)C(=O)NC`, for which the GI50 in test [1], in test [2], in test [3], in [4], in [5] and in test [6] was > 100 µM (inactive) throughout. Further, the GI50 in test [7], in test [8], in test [10], in test [11], in [13] and in [14] was > 100 µM (inactive) each time. Moreover, the GI50 in test [15] is above 100 µM; in test [16], > 100 µM (inactive); in test [17], > 100 µM (inactive); in test [18] it was > 100 µM (inactive); in [20], > 100 µM (inactive).
As to `N[C@H]1C2C3CC4C5CC(C42)C1(c1ccccc1)C53` (stereo partly drawn), the GI50 in [1] was > 100 µM (inactive); in test [2], > 100 µM (inactive); in test [3], > 100 µM (inactive); in test [4], > 100 µM (inactive); in test [5], > 100 µM (inactive); in test [6] it was 75 µM (inactive). Moreover, the GI50 is > 100 µM (inactive) in [7]; 65.8 µM (inactive) in test [8]; 29.7 µM (inactive) in [10]; > 100 µM (inactive) in test [11]; > 100 µM (inactive) in test [12]; > 100 µM (inactive) in test [13]. Moreover, the GI50 is > 100 µM (inactive) in [14]; above 100 µM in [15]; > 100 µM (inactive) in [16]; > 100 µM (inactive) in [17]; > 100 µM (inactive) in [18]; > 100 µM (inactive) in test [20].
As for `C=Nc1ccc([N+](=O)[O-])cc1`, the GI50 in test [1], in test [2], in test [3], in test [4], in test [5] and in test [6] was > 100 µM (inactive) in each case. In addition, the GI50 in test [7], in test [8], in test [10], in test [11], in test [12] and in test [13] was > 100 µM (inactive) each time. The GI50 is > 100 µM (inactive) in test [14]; above 60.1 µM in test [15]; > 100 µM (inactive) in [16]; 43.5 µM (inactive) in test [17]; > 100 µM (inactive) in test [18]; > 100 µM (inactive) in [20].
In the case of `CCNC(=O)O/N=C1\CCC2[C@@H]3CC=C4C[C@@H](OC(=O)NCC)CC[C@]4(C)C3CC[C@]12C` (stereo partly drawn), the GI50 in test [1] was 0.971 µM (active); in test [2] it was 1.55 µM (inactive); in test [3], 2.09 µM (inactive); in test [4], 22.3 µM (inactive); in test [5] it was 1.38 µM (inactive); in [6], 2.58 µM (inactive). Further, the GI50 in test [7] was 1.77 µM (inactive); in [8], 3.08 µM (inactive); in [10] it was 4.68 µM (inactive); in [11], 2.13 µM (inactive); in test [12], 0.735 µM (active); in [13], 0.358 µM (active). For the same compound, the GI50 in [14] is 2.16 µM (inactive); in test [15], 2.15 µM; in test [16], 1.08 µM (active); in test [17], 0.537 µM (active); in test [18], 0.807 µM (active); in test [20] it was 2.69 µM (inactive).
For `C/C(N)=[N+](/C)[O-]`, the GI50 in test [1] is > 100 µM (inactive); in [2], 38.5 µM (inactive); in test [3], > 100 µM (inactive); in test [4], > 100 µM (inactive); in test [5] it was 31.6 µM (inactive); in test [6] it was > 100 µM (inactive). The GI50 in [7] is > 100 µM (inactive); in [8] it was > 100 µM (inactive); in test [10] it was 36.9 µM (inactive); in [11], > 100 µM (inactive); in test [12] it was > 100 µM (inactive); in [13], 18.4 µM (inactive). Besides, the GI50 in test [14] is > 100 µM (inactive); in [15], 19.9 µM; in [16], > 100 µM (inactive); in test [17], 15.5 µM (inactive); in [18], > 100 µM (inactive); in test [20], > 100 µM (inactive).
As for `COc1ccc(C(=O)N/N=C/c2c(C)n(C)n(-c3ccccc3)c2=O)cc1`, the GI50 in test [1], in test [2], in test [3], in test [4], in test [5] and in [7] was > 100 µM (inactive) in each case. Moreover, the GI50 in [8], in [10], in [11], in test [12], in [13] and in test [14] was > 100 µM (inactive) in each case. For the same compound, the GI50 in test [15] is above 100 µM; in [16], > 100 µM (inactive); in test [17], > 100 µM (inactive); in test [20], > 100 µM (inactive).
Take `CC1=[N+]([O-])c2ccccc2C(=O)C1=O`: the GI50 in [1] is > 100 µM (inactive); in test [2] it was 68.5 µM (inactive); in test [3] it was 99.8 µM (inactive); in test [4] it was > 100 µM (inactive); in test [5], > 100 µM (inactive); in test [6], > 100 µM (inactive). Moreover, the GI50 in test [7] is > 100 µM (inactive); in test [8] it was 69 µM (inactive); in test [10], > 100 µM (inactive); in [11], > 100 µM (inactive); in test [12], > 100 µM (inactive); in test [13], > 100 µM (inactive). In addition, the GI50 in test [14] is > 100 µM (inactive); in test [15] it was 56.4 µM; in test [16], 92.9 µM (inactive); in test [17] it was 41 µM (inactive); in test [18], > 100 µM (inactive); in [20] it was > 100 µM (inactive).
`N=C(N)NCCCS(=O)(=O)Nc1ccc(Nc2c3ccccc3nc3cc([N+](=O)[O-])ccc23)cc1`: the GI50 is 20.3 µM (inactive) in test [1]; 16.6 µM (inactive) in [2]; 4.05 µM (inactive) in test [3]; 17.5 µM (inactive) in [4]; 21.4 µM (inactive) in test [5]; 25.4 µM (inactive) in [6]. Also, the GI50 in test [7] is 21.2 µM (inactive); in [8], 4.9 µM (inactive); in test [9], > 100 µM (inactive); in test [10], 14.7 µM (inactive); in test [11], 21.6 µM (inactive); in [12], 15.7 µM (inactive). Moreover, the GI50 is 4.72 µM (inactive) in test [13]; 5.31 µM (inactive) in [14]; above 85.9 µM in test [15]; 4.65 µM (inactive) in test [16]; 16.4 µM (inactive) in test [17]; 5.55 µM (inactive) in [18]. In addition, the GI50 in test [19] is 12.5 µM (inactive); in test [20] it was 13 µM (inactive).
For `CC(NC(=O)/C(C#N)=C/c1ccc2[nH]ccc2c1)c1ccccc1` (stereo not drawn), the GI50 in [1] is 17.1 µM (inactive); in test [2], 20.2 µM (inactive); in test [3] it was 15.9 µM (inactive); in test [4] it was 16.5 µM (inactive); in test [5], 21.6 µM (inactive); in test [6] it was 17.5 µM (inactive). Also, the GI50 in test [7] is 17.9 µM (inactive); in [8] it was 14.5 µM (inactive); in [9] it was 13.9 µM (inactive); in test [10], 19.8 µM (inactive); in test [11], 20.8 µM (inactive); in test [12], 22 µM (inactive). The GI50 in test [13] is 22.3 µM (inactive); in test [14], 24 µM (inactive); in test [15], 12.5 µM; in [16], 19.4 µM (inactive); in test [17], 16.4 µM (inactive); in test [18], 18.2 µM (inactive). Further, the GI50 in test [19] is 31.6 µM (inactive); in test [20], 31.4 µM (inactive).
